Reference: publication PMC4385452 (Bioorganic & medicinal chemistry letters, 2015)

Legend:
human CHT = molecular target: T1, human CHT (Homo sapiens, UniProt Q9GZV3, L531A/V532A); type: cell-based
T1 sequence (Q9GZV3 1-580 L531A/V532A): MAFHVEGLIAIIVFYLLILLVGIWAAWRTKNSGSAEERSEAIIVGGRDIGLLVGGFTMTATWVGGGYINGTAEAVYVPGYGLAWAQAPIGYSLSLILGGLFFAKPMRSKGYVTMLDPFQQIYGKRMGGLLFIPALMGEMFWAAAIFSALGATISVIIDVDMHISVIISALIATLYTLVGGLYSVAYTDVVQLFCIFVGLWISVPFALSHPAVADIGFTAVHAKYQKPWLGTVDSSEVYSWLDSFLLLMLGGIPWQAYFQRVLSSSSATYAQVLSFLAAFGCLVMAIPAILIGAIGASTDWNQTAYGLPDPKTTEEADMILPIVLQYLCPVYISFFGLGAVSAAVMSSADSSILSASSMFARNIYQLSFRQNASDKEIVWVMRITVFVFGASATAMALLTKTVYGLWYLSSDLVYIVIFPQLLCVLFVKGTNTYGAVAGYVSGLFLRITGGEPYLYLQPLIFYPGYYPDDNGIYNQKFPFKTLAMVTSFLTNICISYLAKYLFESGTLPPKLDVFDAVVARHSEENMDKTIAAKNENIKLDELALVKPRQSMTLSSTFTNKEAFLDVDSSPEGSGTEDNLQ

[1] = intrinsic clearance in liver microsomes; details: mouse
[2] = test system: dopamine transporter (DAT); details: at the highest concentration tested; cited from earlier work
[3] = cassette tissue distribution study in mice; type: in vivo, mouse; details: 1.0 mg/kg per compound intraperitoneal cassette dose, n = 3

Row | Compound | CHT inhibitory activity (human CHT) | CLint scaled [1] [mL/min/kg] | further results
1 | COc1ccc(C(=O)NCc2cc(C(C)C)no2)cc1O [Compound 10v] | inactive |  | 
2 | COc1ccc(C(=O)NCc2csc(C)n2)cc1OC1CCN(C(C)C)CC1 [Compound 10b] |  | 979 | 
3 | COc1ccc(C(=O)NCc2cc(C(C)C)no2)cc1OC1CCCN(C)C1 (stereo not drawn) [Compound 10n] | tolerated, but less active |  | 
4 | COc1ccc(C(=O)NCc2cc(C(C)C)no2)cc1OC1CCCC1 [Compound 10p] | inactive |  | 
5 | COc1ccc(C(=O)NCc2cc(C(C)C)no2)cc1OC1CCCCC1 [Compound 10o] | inactive |  | 
6 | COc1ccc(C(=O)NCc2cc(C(C)C)no2)cc1OCCN1CCCCC1 [Compound 10q] |  | 167 | 
7 | COc1ccc(C(=O)NCc2cc(C(C)C)no2)cc1OC1CCN(C)CC1 [Compound 10m, N-((3-isopropylisoxazol-5-yl)methyl)-4-methoxy-3-((1-methylpiperidin-4-yl)oxy)benzamide] | equipotent with the isopropyl analog | 43.7 | DAT inhibitory activity [2]: did not show any inhibitory activity
8 | COc1ccc(C(=O)NCc2cc(C(C)C)no2)cc1OCCN1CCOCC1 [Compound 10r] |  |  | fold less active than the piperidine analog (human CHT; morpholine 10r versus piperidine 10q): ~ 10 fold
9 | COc1ccc(C(=O)NCc2ccc(C)s2)cc1OC1CCN(C(C)C)CC1 [Compound 10c] |  |  | activity at the high choline concentration (human CHT; high (10 μM) choline): modest inhibitory activity; activity at the low choline concentration (human CHT; low (100 nM) choline): inactive
10 | COc1ccc(C(=O)NC(C)Cc2ccccn2)cc1OC1CCN(C(C)C)CC1 (stereo not drawn) [Compound 10k] |  | 106 | 
11 | COc1ccc(C(=O)NCc2cc(C(C)C)no2)cc1OC1CCNCC1 [Compound 10l] | much less active |  | 
12 | COc1ccc(C(=O)NCc2cc(C(C)C)no2)cc1OC1CCN(C(C)C)CC1 [Compound 10e] |  | 781 | Brain concentration [3]: BLQ
13 | CCn1nc(C)c(CNC(=O)c2ccc(OC)c(OC3CCN(C(C)C)CC3)c2)c1C [Compound 10f] |  | 29.9 | Brain concentration [3]: BLQ
